Patent publication US20170173106A1, “Polypeptide Fragments of 168A-T2 and Compositions Comprising Them for Use in Treating Cancer” (GENE SIGNAL INTERNATIONAL SA, priority 2014, published 2017)

Key:
Format in all cases: cell-based, human
HUVECs [1] = experiment: Cellular proliferation test (MTT) on HUVECs; conditions: 48 h
Method: Evaluation of cellular proliferation was performed using 4,5-diMethylThiazol-2-yl)-2,5 diphenylTetrazolium bromide (MTT) test. After 18 hrs of culture, the media was changed by EBM2 supplemented with gentamycine and 5% SVF. Different concentrations of peptides were added under a volume of 10 μL/well. Cells were incubated for 48 hrs at 37° C. MTT was added (50 μL/well) to the cells for 3 hrs.
Cells were grown for 48 h in EGM2-MV and proliferation was quantified by MTT assay.

HUVECs [2] = experiment: Capillaries formation by HUVECs on Matrigel; conditions: 6.5 μM, 13 μM and 33 μM, 18 h
Method: Evaluating the formation of capillaries on Matrigel® was performed by angiogenesis test in vitro described in Grant et al (1989 Cell 58, 933-943). Matrigel® was dropped down the wells of the 96 well plates and maintained for 30 min at 37° C. for the Matrigel® solidification. HUVECs cells were then seeded and 50 μL, of peptide added.
Plates were then incubated for 18 hrs at 37° C. cells were then washed with calcein solution (50 μL/well at 8 μM) and incubated for 20 min. HUVECs alive metabolize calcein in a green fluorescent component.
Peptides were added to the culture medium (EGM2-MV) at concentrations 6.5 μM, 13 μM and 33 μM after inoculation of cells. Plates were incubated at 37° C. for 18 h. Fluorescence labeling was achieved by addition of calcein. Pictures were shot with a fluorescence microscope equipped with a camera (zoom ×40).

HUVECs [3] = experiment: Migration test following the wound test; conditions: 66 μM (FIG. 3); 20 hrs
Method: The migration of the cells was evaluated according to the wound test (Sato and Rifkin 1988 J Cell Biol 107, 1199-1205). HUVECs were cultivated to confluence in an EGM2-MV media. The wound width was measured using the software “Analysis” (Soft Imaging System Gmbh Digital, Olympus). Peptides to be tested were then added to the media.
A wound has been performed with a chisel tip on the cell layer. The HUVECs migration following the addition of peptides was evaluated by the wound assay and the progress of the migration front of the HUVECs was analyzed after 20 hrs of culture. […] Pictures were shot with a microscope equipped with a camera (zoom ×40).

endostatin = experiment: Endostatin production by HUVECs (ELISA); conditions: rising concentrations; 48 hrs
Method: HUVECs were transfected with siRNA using transfecting agent GENJET according to the manufacturer's instructions. After 48 hrs of incubation, supernatants were collected, protein expression tested by western blots and endostatin quantified.
Endostatin levels were quantified by ELISAs on lysates of HUVECs incubated at rising concentrations of P3 or PCT for 48 hrs.
In order to evaluate the role of metalloproteinases (MMPs) in endostatin production, a polyvalent inhibitor of MMPs, GM6001 was used. The concentration of endostatin in supernatants is at 6.2 ng/mg of protein of the lysates/48 hrs. […] GM6001 inhibits endostatin production induced by P3. MMPs might then be implicated in endostatin production induced by P3.
HUVECs were incubated for 48 hrs in an EGM2-MV media with an anti-CD151 antibody (11G5a) or an irrelevant antibody (negative control unable to recognize any protein). Then endostatin levels were measured by ELISA in supernatants.
HUVECs cells were transfected with specific siRNA of CD151 and CD9. Protein expression was analyzed in western blots. In parallel, endostatin levels were measured by ELISA in supernatants. […] Levels of endostatin in supernatant of HUVECs cells transfected with siRNA were measured. […] On the contrary, levels of endostatin increased at 9.4 ng/mg of protein lysates/48 hrs in HUVECs depleted in CD151 (FIG. 18B). CD151 is thus involved in the production of endostatin.

NQKGCYDLVT (control peptide) [PCT]
effect on HUVECs proliferation (HUVECs [1]): No effect
capillary tubes formation (capillaries length and junctions number) (HUVECs [2]): no effect
wound closure / HUVECs migration (HUVECs [3]): completely closed
level of endostatin compared to the solvent condition (endostatin): does not modify the level of endostatin
